Where two headings read alike, the source gives them in different places.
Assays:
[1] = tested on: human colon adenocarcinoma cell line, LS 174T; assay: SRB cytotoxicity on LS174T cells; type: cell-based
Experimental: Cells were seeded in 96-well microtiter plates at densities of 1000 cells/well. The optimal seeding density was determined to ensure exponential growth in control wells throughout the experimental period and to obtain a linear relationship between absorbance at 492 nm and cell number when analyzed by the sulforhodamine B (SRB) assay (43). 24 hours after seeding the cells were incubated for 1 hour or continuously for 3 days with the drugs (concentration range 0.01 to 500 μM). The cells were washed once and then incubated in drug free medium for 6 days. At the end of the incubation cell growth was determined by the SRB assay, which quantifies viable cells by measuring their total cellular protein content. […] Similar studies were conducted against the growth of PC3 (human prostate cancer cells) and MCF-7 (human breast cancer cells).

[2] = tested on: K562 human chronic myeloid leukemia cells; assay: MTT cytotoxicity on K562 cells; type: cell-based
[3] = tested on: supercoil pBR322 DNA; assay: pBR322 strand nicking assay; type: biochemical
Source text: When a compound is covalently bound to a purine-N3 in the minor groove of DNA, the adduct is thermally unstable. It is readily hydrolyzed to produce a DNA strand (2). Consequently, the formation of adenine-N3 (or guanine-N3) alkylation adducts can be detected by thermal conversion of supercoil pBR322 DNA (Form I) to nicked open […] DNA (Form II) as a result of the formation of single strand breaks. These two different forms of pBR322 DNA can then be separated by agarose gel electrophoresis, and the relative amounts of each form can be determined by densitometry of methylene blue stained gels (39). The supercoil form of pBR322 DNA is more compact than the open circular form, and as a result, moves further down the gel towards the positive electrode.
Solutions of the drugs dissolved in N,N-dimethylacetamide (DMA) were made at 0.10 mM concentrations, and were always stored in the refrigerator.
Tris buffer solution at pH 7.4 at 25° C. and 0.010 M was made from Tris HCl (0.661 g), Tris base (0.097 g) diluted to a 100 mL volume with distilled water. Then EDTA-Na2—2H2O (0.186 g) and KCl (3.72 g) were added to the Tris HCl solution and diluted to 500 mL volume with distilled water. A TBE solution was prepared from Carolina Lot #4020602 Electrophoresis buffer 20 times TBE diluted to a volume of three liters with deionized water. The agarose gel was prepared from agarose low EEO (0.32 g) dissolved in TBE buffer (40 mL) and heated in a microwave oven until dissolved.
The pBR322 DNA (100 μg/100 μL) from Pharmacia Biotech was in a buffer (10 mM Tris-HCl pH 7.5, and 1 mM EDTA). The DNA was prepared from plasmid DNA isolated from E. coli HB101 by the alkaline lysate procedure and was purified by Sepharcryl S-100 chromatography followed by CsCl-ethidium bromide centrifugation.
The alkylation samples were prepared by adding DNA (10 μL), Tris-EDTA KCl buffer (18 μL), and compound (2 μL) at 100 μM concentration to Eppendorf tubes. The samples were incubated at 40° C. for 40 h. The samples were removed then centrifuged for one minute. 10% SDS (sodium dodecylsulfate) (2 μL), 50% glycerol (5 μL), and bromophenol blue (2 μL) were added to the samples. The contents of the tubes were mixed with a Vortex mixer then centrifuged to consolidate the samples. The agarose gel was covered with TBE-buffer in the chamber. The samples were loaded onto the agarose gel and run at 40 V for three hours, or when the band were about three/fourths of the way down the gel.
The gel was removed and stained with methylene blue (45 min). At this time, the stained gel was placed in a water chamber overnight. The intensities of each band i.e. Form I and II were determined using densitometry.

[4] = tested on: plasmid pBR322 DNA; assay: Taq polymerase stop assay; type: biochemical
[5] = tested on: mouse L1210 leukemia cells; details: cited from earlier work; for IC50 values (range in words): growth of mouse L1210 leukemia cells in culture
[6] = tested on: panel of 60 human cancer cell lines; assay: NCI in-vitro cytotoxicity screen, whole panel; type: cell-based; details: for range of activity: 48 hour exposure
[7] = tested on: P815 mastocytoma cells; assay: MTT cytotoxicity on P815 cells; type: cell-based, murine; details: 72 hr incubation
Experimental: (§1) The P815 and L1210 cell lines were obtained from American Type Tissue Culture Collection (ATCC). The cell lines were grown in Delbecco's Modified Eagle Medium (DMEM, Atlanta Biologicals) supplemented with 10% fetal bovine serum, Hepes Buffer (2 mM, Mediatech Cellgro, 25-060-Cl), L-Glutamine (2 mM, Mediatech Cellgro), and penicillin/streptomycin (50,000 units penicillin, 50,000 […], Atlanta Biologicals). Cells were maintained at 37° C. in a 5% humidified CO2 atmosphere. Cultured cells were counted using a hemocytometer and resuspended in fresh DMEM at a concentration of 8×10^5 cells/mL. This cell suspension (100 μL) was added to 96 well flat -bottom cell culture plates. At this concentration, 80,000 cells were seeded in each well. Drug solutions (dissolved in DMSO and diluted in DMEM) were added to each well (5 μL/well) resulting in final concentrations ranging from 1×10^−4 to 1×10^−12 M. Quadruplicate wells were prepared for each drug concentration. The plates were incubated for 72 hr at 37° C. in a 5% CO2 atmosphere. MTT (3-(4,5-dimethylthiazol-2-yl)-2,5-diphenyl tetrazolium bromide) was dissolved in PBS (5 mg/ml). After the indicated cell incubation period, 10 μL of this stock MTT solution was added to each well and the plates were further incubated for 4 h at 37° C. in a 5% CO2 atmosphere. […] The contents of the well were mixed thoroughly by pipetting the cell suspension up and down and the plates were allowed to sit at room temperature for 15 min in order to allow for full development of the purple color. The plates were read on a Dynatech Plate Reader, utilizing Dynex Revelation 3.2 software, with a test wavelenth of 570 nm and a reference wavelength of 630 nm.

[8] = tested on: L1210 leukemia cells; assay: MTT cytotoxicity on L1210 cells; type: cell-based, murine; details: 72 hr incubation
Experimental: as §1

[9] = mice; therapeutic doses; cited from earlier work
[10] = tested on: L1210 leukemia; details: carzelesin 400 μg/kg, adozelesin 100 μg/kg; cited from earlier work
[11] = tested on: human tumor cells in hollow fibers; assay: NCI hollow fiber assay, all cell lines; type: in vivo, mice
[12] = Homo sapiens, K562, 1 h, read-out: IC50 1 hour exposure
[13] = 0.1 mM compound, 40° C. for 40 h

CCCC(=O)Nc1cc(C(=O)Nc2cc(C(=O)Nc3ccc(O)cc3CCBr)n(C)c2)n(C)c1 [Compound 7, N-(2-(2-Bromoethyl)-4-hydroxyphenyl)-1-methyl-4-(1-methyl-4-butanamidopyrrole-2-carboxamido)pyrrole-2-carboxamide]
IC50 ([1]; Homo sapiens, 1 h, read-out: IC50 LS174T 1 hour exposure): 237 µM
activity in words ([1]; one hour exposure): not active
IC50 [2, 12]: > 100 µM
IC50 ([2]; Homo sapiens, K562, 72 h, read-out: IC50 continuous exposure (3 days)): 3.64 ± 0.05 µM
activity in words ([2]; K562, one hour exposure): not active

Cl.Cn1cc(NC(=O)c2cccn2C)cc1C(=O)NCCCCNC(=O)CCCC(=O)Nc1ccc2oc(C(=O)Nc3cc(O)ccc3CCCl)cc2c1 [Compound 17]
Form II DNA (%) [3]: quantitative
alkylation of the 5′-AAAAA sequence [4]: did not alkylate
alkylation selectivity (sequence) [4]: 3′-ATTT-5′

Cc1c[nH]c2c(O)cc3c(c12)[C@H](CCl)CN3C(=O)c1cc2cc(NC(=O)Nc3ccc4[nH]c(C(=O)N5C[C@@H](CCl)c6c5cc(O)c5[nH]cc(C)c65)cc4c3)ccc2[nH]1 [Bizelesin]
IC50 [5]: 0.001 nM
potency relative to (+)-CC1065 [5]: 20-30 times

COc1cc2cc(C(=O)N3CC(CCl)c4c3cc(O)c3ccccc43)[nH]c2c(OC)c1OC (stereo not shown) [Compound 28, seco-CBI-trimethoxyindole, reference compound]
covalent DNA AT sequence selectivity [4]: preferentially at a five consecutive A(865)AAAA sequence

COc1cc2cc(C(=O)Nc3cc(O)c4ccccc4c3CCCl)[nH]c2c(OC)c1OC [Compound 26, 4-(2-Chloroethyl)-3-(5,6,7-trimethoxyindole-2-carboxamido)-1-naphthol]
Form I DNA (%) [3, 13]: 0%
Form II DNA (%) [3, 13]: quantitative
range of activity [6]: micromolar range
activity against leukemia cells [6]: none of these compounds showed much activity
activity against melanoma cells [6]: active
activity against solid tumors cells [6]: strong activity
covalent DNA AT sequence selectivity [4]: preferentially at a five consecutive A(865)AAAA sequence

Cl.Cn1cc(NC(=O)c2cccn2C)cc1C(=O)NCCCCNC(=O)CCCC(=O)Nc1ccc2oc(C(=O)Nc3cc(O)ccc3CCCl)cc2c1 [Compound 17, N-[(N-(4-Aminobutyl)-N-methylpyrrole-4-(N-methylpyrrole-2-carboxamido)-2-carboxamido)]-N-[5-(4-(2-chloroethyl)phenol-3-yl)benzofuran-2-carboxamido)]glutarodiamide hydrochloride]
IC50 [7]: 61 µM
IC50 [8]: 64 µM

COC(=O)c1cc2c([nH]1)C(=O)C=C1N(C(=O)c3cc4cc(OC)c(OC)c(OC)c4[nH]3)CC3CC123 (single isomer, unassigned; (+)) [DUMSA, (+)-duocarmycin SA]
delayed lethality / delayed toxicity [9]: devoid of this toxic side effect
IC50 values (range in words) [5]: pM range

COc1c2c(c3cc(C(=O)N4CCc5c4c(OC)c(O)c4[nH]c(C(=O)N6CC7C[C@@]78C6=CC(=O)c6[nH]cc(C)c68)cc54)[nH]c3c1O)CCN2C(N)=O (single isomer, unassigned; (+)) [(+)-CC1065]
delayed lethality / delayed toxicity [9]: delayed lethality
IC50 ([5]; L1210): 0.02 nM
IC50 values (range in words) [5]: pM range

COc1cc2cc(C(=O)Nc3cc(N)ccc3CCCl)[nH]c2c(OC)c1OC [Compound 24, 4-(2-Chloroethyl)-3-(5,6,7-trimethoxyindole-2-carboxamido)aniline]
Form II DNA (%) [3, 13]: quantitative

CCN(CC)c1ccc2cc(C(=O)Nc3ccc4[nH]c(C(=O)N5C[C@@H](CCl)c6c5cc(OC(=O)Nc5ccccc5)c5[nH]cc(C)c65)cc4c3)oc2c1 [carzelesin]
ILS [10]: 150±8%
survival [10]: 2/6

CCCC(=O)Nc1cc(C(=O)Nc2cc(C(=O)Nc3ccc(O)cc3CCCl)n(C)c2)n(C)c1 [Compound 6, N-(2-(2-Chloroethyl)-4-hydroxyphenyl)-1-methyl-4-(1-methyl-4-butanamidopyrrole-2-carboxamido)pyrrole-2-carboxamide]
IC50 [2, 12]: > 30 µM

N-[(N-(4-Aminobutyl)-N-methylimidazole-4-(N-methylpyrrole-2-carboxamido)-2-carboxamido)]-N-[5-(4-(2-chloroethyl)phenol-3-yl)benzofuran-2-carboxamido)]glutarodiamide hydrochloride [Compound 19]
Form II DNA (%) [3]: quantitative
IC50 [7]: > 100 µM
IC50 [8]: > 100 µM
additional unique alkylation site [4]: 3′-(G)CA-5′
alkylation of the 5′-AAAAA sequence [4]: did not alkylate
alkylation selectivity (sequence) [4]: 3′-ATTT-5′

N-[(N-(4-Aminobutyl)-N-methylpyrrole-4-(N-methylimidazole-2-carboxamido)-2-carboxamido)]-N-[5-(4-(2-chloroethyl)phenol-3-yl)benzofuran-2-carboxamido)]glutarodiamide hydrochloride [Compound 18]
Form II DNA (%) [3]: quantitative
IC50 [7]: > 100 µM
IC50 [8]: > 100 µM
additional unique alkylation site [4]: 3′-GCAACG-5′
alkylation of the 5′-AAAAA sequence [4]: did not alkylate
alkylation selectivity (sequence) [4]: 3′-ATTT-5′

4-(2-Bromoethyl)-3-[5-(5-benzofuran-2-carboxamido)indole-2-carboxamido]phenol [Compound 2]
IC50 ([2]; K562 cells, continuous exposure (3 days), read-out: IC50 continuous exposure (3 days)): 1.6 ± 0.9 µM
IC50 ([2]; read-out: IC50 1 hour exposure, K562 cells, 1 hour exposure): 23.8 ± 9.7 µM
sequence selectivity [4]: stronger sequence selectivity than 27
efficiency in alkylating DNA ([4]; compared with chloro-compound 1): less efficient in alkylating DNA

COc1cc2cc(C(=O)Nc3cc(N)c4ccccc4c3CCCl)[nH]c2c(OC)c1OC [Compound 25, 4-(2-chloroethyl)-3-(5,6,7-trimethoxyindole-2-carboxamido)-1-naphthylamine]
Form II DNA (%) [3, 13]: quantitative
range of activity [6]: micromolar range
activity against leukemia cells [6]: none of these compounds showed much activity
activity against melanoma cells [6]: active
activity against solid tumors cells [6]: strong activity
cell kill [11]: cell kill observed
composite score ([11]; IP+SC): 54
IP score ([11]; intraperitoneal fibers): 46
SC score ([11]; subcutaneous fibers): 8
covalent DNA AT sequence selectivity [4]: preferentially at a five consecutive A(865)AAAA sequence
